# Experimental data published in patent publication US20250017973A1, “Nutritional composition for cancer” (N.V. Nutricia, priority 2022, published 2025).
# Tested on: mammary adenocarcinoma cells
# Assay: Dark Agouti Mammary Adenocarcinoma (DAMA) tumour-bearing model: tumour growth and MTX efficacy
# Format: in vivo, rat
# Conditions: MTX treated rats
# Procedure: Tumour-bearing studies were conducted in accordance with ethical guidelines approved by the University of Adelaide Animal Ethics committee in accordance with the National Health and Medical Research Committee's Code for the care and use of animals for scientific research. All experiments were performed with N=8 rats per group.
# The rats were individually-housed in conventional, open top cages under 12 h light/dark cycles with ad libitum access to autoclaved food and sterile water. Sawdust bedding was provided in all cases with enrichment (crinkle paper for tumour-naïve model or toilet rolls for tumour-bearing model). All cages were randomly arranged across racks to prevent potential bias and dampen variation.
# The Dark Agouti Mammary Adenocarcinoma (DAMA) model was used to assess the effect of a composition comprising hydrolysed whey proteins and MCTs on tumor growth. Following acclimatisation (1 week with AIN93G control diet), female DA rats weighing 150-170 g were given ad libitum access to the test or control diet (table 1) for two weeks prior to methotrexate (MTX) treatment (day-14). […] Tumours were measured daily using digital calipers to determine their volume (cm^3). Tumour burden was calculated as tumour length width*depth (volume) and expressed as relative to body weight (% BW, cm^3/g). […]
smiles,measurement,value
"CN(Cc1cnc2nc(N)nc(N)c2n1)c1ccc(C(=O)N[C@@H](CCC(=O)O)C(=O)O)cc1 [MTX, methotrexate]","tumour burden at necropsy (FIG. 1B volume, FIG. 1C weight, relative to body weight)",significantly decreased to (near) zero
